Measurements: US20230257373A1, “QUORUM SENSING INHIBITORS AND METHODS OF USE” (priority 2020, published 2023)
Where two headings read alike, the source gives them in different places.

Assays:
[1] = tested on: PluxC-gfp reporter in V. parahaemolyticus; assay: PluxC-gfp reporter in V. parahaemolyticus strains; conditions: Vibrio parahaemolyticus
LuxR = LuxR (Vibrio harveyi, UniProt P21308); assay: EMSA DNA binding activity of LuxR; format: biochemical, V. campbellii; parameters: made in house; host or cells: E. coli BL21(DE3); conditions: saturating concentrations
LuxR, sequence (P21308 whole entry, the tested form may be a part): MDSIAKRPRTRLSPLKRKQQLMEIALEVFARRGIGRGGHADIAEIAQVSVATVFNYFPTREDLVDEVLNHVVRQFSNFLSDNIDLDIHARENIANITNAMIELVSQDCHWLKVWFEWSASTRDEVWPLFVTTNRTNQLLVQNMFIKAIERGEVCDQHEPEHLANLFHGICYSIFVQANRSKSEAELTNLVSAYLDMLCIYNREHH
Method: We noted that Qstatin and PTSP are both predicted to bind in the putative ligand binding pocket of SmcR. It is currently unknown how Qstatin allosterically affects DNA binding through its interactions in the ligand binding domain. […] We therefore also assessed the effect of sulfonamide PTSP on the DNA binding activity of LuxR and SmcR in vitro. […] (Kim et al., 2018).
SmcR and LuxR were purified as described previously. EMSAs were conducted as described previously using oligonucleotides corresponding to the luxC and vvpE promoter sequences. ITC analysis was conducted using purified LuxR or His-tagged SmcR, each in gel-filtration buffer (25 mM Tris pH 7.5, 300 mM NaCl, 0.5 mM EDTA, 1 mM DTT, 2% DMSO). All molecules analyzed were diluted in the same buffer. The samples were degassed for 10 min by vacuum aspiration. Titrations were performed on a Nano-ITC (TA Instruments). […] Thermograms were analyzed using NanoAnalyze software with the independent binding model.

OpaR = assay: E. coli bioassay expressing OpaR (IPTG-inducible plasmid); format: cell-based, V. parahaemolyticus; conditions: 25 μM PTSP
Source text: We hypothesized that there were several possible reasons for the observed difference in PTSP inhibition in the various Vibrio species, including but not limited to: 1) differences in LuxR-inhibitor interaction(s), 2) differences in diffusion of the inhibitor across the membranes, or 3) stability of the inhibitor in the cell and/or cell culture. To examine PTSP activity in a common strain background, we cloned the luxR gene from each Vibrio species into a plasmid under control of an IPTG-inducible promoter and assayed the effect of PTSP against these proteins in the E. coli bioassay. […] We conclude that the differences in PTSP activity in Vibrio species is due to differences in interaction between PTSP and the LuxR-type protein in each Vibrio.
In E. coli assays expressing the five different LuxR-type proteins (luxR, smcR, opaR, vcpR, hapR), slight changes to the protocol were implemented. The luxR genes were cloned under control of the IPTG-inducible Ptac promoter in plasmid pMMB67EH-kanR. […] Strains expressing hapR or smcR required 50 μM IPTG to observe activation of the GFP reporter; IPTG was not added to strains expressing luxR, vcpR, or opaR.

Question: What does the source list for `O=S(=O)(c1cccs1)n1ccc(-c2ccccc2)n1` [Compound 10B]?
Answer: IC50 ([1]; read-out: IC50, V. parahaemolyticus RIMD2210633, luxCDABE reporter plasmid): 280 nM; IC50 ([1]; read-out: Inhibition (IC50) of the PluxC-gfp reporter, Vpara 12-297/B): 320 nM; IC50 ([1]; read-out: Inhibition (IC50) of the PluxC-gfp reporter, Vpara D4): 270 nM; IC50 ([1]; read-out: Inhibition (IC50) of the PluxC-gfp reporter, Vpara RIMD 2210633): 170 nM; DNA binding to LuxR (LuxR): did not alter DNA binding; Inhibition of OpaR in E. coli bioassay (OpaR): inhibited
